According to PubChem BioAssay (NCI):
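Test compounds were applied to cells in 96-well plates for 48 hours at 5 doses. GI50 = concentration required for 50% inhibition of growth. Definition used: TGI = concentration required for complete inhibition of growth.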 Where a SMILES comes first, the peptide text is derived from it.

Legend:
Test in all cases: growth of human tumour cells (NCI), 48 h
[1] = system: SK-MEL-2 melanoma
[2] = system: HL-60(TB) leukemia
[3] = system: NCI-H460 lung
[4] = system: 786-0 renal
[5] = system: NCI-H522 lung
[6] = system: HCT-116 colon
[7] = system: IGROV1 ovarian
[8] = system: MDA-MB-231 breast
[9] = system: TK-10 renal
[10] = system: UACC-62 melanoma

Structure (SMILES)	TGI [1] [µM]	TGI [2] [µM]	TGI [3] [µM]	TGI [4] [µM]	TGI [5] [µM]	TGI [6] [µM]	TGI [7] [µM]	TGI [8] [µM]	TGI [9] [µM]	TGI [10] [µM]	GI50 [5] [µM]
S=c1ssc2c3ssc(=S)c3n(Cc3ccccc3)c12	> 100	> 100	> 100	> 100	> 100	> 100	> 100	> 100	> 100	> 100	
CCOC(=O)CC(=O)NC1CC2CCC1(C)C2(C)C (configuration not stated)		> 100	> 100	> 100		> 100	> 100	> 100	> 100	> 100	
c1ccc(COc2ccc(CC3SCCCS3)cc2)cc1		> 100	> 100		> 100	> 100	> 100	> 100	> 100	> 100	
O=c1c(O)c(-c2ccc(O)cc2O)oc2cc(O)cc(O)c12	> 100	> 100	> 100	> 100		> 100	> 100	> 100	> 100		
C=C[C@@H]1OC(=O)O[C@H]1CO	> 100			> 100		> 100	> 100	> 100	> 100	> 100	
CC1NC(=O)CNC(=O)CNC(=O)C(Cc2ccc(O)cc2)NC(=O)C(C(C)C)NC(=O)C(C)NC1=O (configuration not stated) (cyclo(GGAAVY); configuration not given here)	> 100	> 100	> 100		> 100	> 100	> 100			> 100	> 100
O=C(NN=C1CCN(Cc2ccccc2)CC1)C(O)(c1ccccc1)c1ccccc1		> 100		> 100		> 100	> 100	> 100	> 100	> 100	
Clc1ccc(-c2nn3c(CCCCCCCCc4nnc5sc(-c6ccc(Cl)cc6)nn45)nnc3s2)cc1	> 70.5		> 100	60	28.8	75	> 100	> 100	> 100	> 100	
CCCCCC(CN1CCOCC1)C(=O)/C=C/c1ccccc1 (configuration not stated)		5.42	11.1	3.14		3.34				3.37	
Cn1cc(C(=O)c2nccc3c2cnc2ccccc23)ccc1=O	> 100	> 100	> 100	> 100		> 100		> 100	> 100	> 100	
CCCCCCCCCOC(=O)c1cnc(Cl)cn1	40.2		41.5	> 100	36.1	31.5	36	35.6	43.9	33.3	
NCc1ccc(-c2ccc(-c3ccc(-c4ccc(CN)s4)s3)s2)s1	> 100	> 100		> 100	> 100	> 100	> 100	> 100	> 100	> 100	
Cc1cc(-c2ccc(C(=O)O)[nH]2)on1	> 100		> 100	> 100	> 100	> 100	> 100	> 100	> 100	> 100	
CC1=C2C(O)C(C(C)C(=O)NCC(C)C)CCC2(C)C=CC1=O (configuration not stated)	> 100	> 100	> 100		> 100	> 100	> 100			> 100	
COc1ccc2c(c1)C(N)CC2=O (configuration not stated)	74.1			> 100	> 100	> 100	> 100	> 100	> 100	> 100	
CN1C2CCC1CC(OC(c1ccccc1)c1ccccc1)C2 (configuration not stated)	32.1	36.2		27	28.1	25.1	38.8	32.7	44.5	30.4	
S=c1[nH]nc(COc2ccc3c(c2)CCCC3)n1/N=C/c1ccc(Cl)cc1	36.2	40.7	30.2		28.9	28.6	30.6	44.9	38.6	33.7	
COC(CN(C)C(=O)C(C)NC(=O)c1ccccc1)OC (configuration not stated)	> 100		> 100	> 100	> 100	> 100	> 100	> 100	> 100	> 100	
O=C(Cn1c(=O)ccn(C2OC(CO)C(O)C2F)c1=O)c1ccc(F)cc1 (configuration not stated)		> 100	> 100	> 100	> 100	> 100	> 100	> 100	> 100	> 100	
C[C@]12CC[C@@H]3c4ccc(O)cc4CC[C@H]3[C@@H]1C/C(=C\c1ccc([N+](=O)[O-])cc1)C2=O	> 100		> 100	> 100	65.4	> 100	> 100	> 100	> 100	> 100	
CC(C)(C)OC(=O)[N+](=N)C(=O)C1CCC(=O)N1C(=O)OCc1ccccc1 (configuration not stated)		> 100	> 100	> 100	> 100	> 100	> 100	> 100	> 100	> 100	
COc1c(CC=C(C)C)c(O)c(C(CC(C)C)c2c(O)c(C(C)=O)c(O)c3c2OC(C(C)(C)O)C3)c(O)c1C(C)=O (configuration not stated)		6.57	> 12.5	> 12.5	> 12.5	> 12.5	> 12.5			> 12.5	
NC(N)=NCCCC(N=c1c2ccccc2n(O)c2ccccc12)C(=O)O (configuration not stated)	> 100	58.5	> 100	> 100	> 100	> 100	> 100		> 100	> 100	
NC(=O)NC(=O)c1cnccn1	> 100		> 100	> 100	> 100	> 100		> 100	> 100	> 100	
COc1ccc2[nH]c(CCNC(=O)c3cc([N+](=O)[O-])cc([N+](=O)[O-])c3)cc2c1	> 100	> 100	> 100	> 100		> 100	> 100	> 100	> 100	> 100	
